Reference: ChEMBL document CHEMBL1201862, “PubChem BioAssay data set” (2004)
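Protocol summary: plate cells (96-well), add compound at 5 concentrations, incubate 48 h, interpolate endpoints linearly. GI50 is the concentration that inhibits growth by half.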 Activity calls are given as the source filed them. Cut-off read from the data, not from the text of the source: active = GI50 up to about 1.1 µM and inactive = higher.

What was measured:
Assay in all cases: inhibition of tumour cell growth, NCI panel, 48 h
[1] = test system: PC-3
[2] = test system: OVCAR-8
[3] = test system: Malme-3M
[4] = test system: SNB-19
[5] = test system: SK-OV-3
[6] = test system: UACC-62
[7] = test system: U-251
[8] = test system: NCI-H226
[9] = test system: MDA-MB-231
[10] = test system: SF-539
[11] = test system: LOX IMVI
[12] = test system: COLO 205
[13] = test system: ACHN
[14] = test system: SN12C
[15] = test system: SR
[16] = test system: KM12
[17] = test system: HCT-116
[18] = test system: OVCAR-5
[19] = test system: UO-31
[20] = test system: SK-MEL-28
[21] = test system: SK-MEL-5
[22] = test system: K562
[23] = test system: NCI-H23
[24] = test system: SF-295
[25] = test system: T47D
[26] = test system: CAKI-1
[27] = test system: HT-29
[28] = test system: A549
[29] = test system: DU-145
[30] = test system: SK-MEL-2
[31] = test system: SNB-75
[32] = test system: HOP-62
[33] = test system: A498
[34] = test system: CCRF-CEM
[35] = test system: MDA-N
[36] = test system: IGROV-1
[37] = test system: RPMI-8226
[38] = test system: SF-268
[39] = test system: NCI/ADR-RES
[40] = test system: NCI-H522
[41] = test system: HL-60
[42] = test system: RXF 393
[43] = test system: Hs-578T
[44] = test system: MDA-MB-435
[45] = test system: UACC-257
[46] = test system: SW-620
[47] = test system: MCF7
[48] = test system: EKVX
[49] = test system: MOLT-4
[50] = test system: 786-0
[51] = test system: M14
[52] = test system: OVCAR-4
[53] = test system: BT-549
[54] = test system: OVCAR-3
[55] = test system: HCC 2998
[56] = test system: HCT-15
[57] = test system: NCI-H460

Compound: COC(=O)/C=C1/SC(/C(=C(/[O-])OC)[n+]2ccc3ccccc3c2)=NC1=O
- GI50 [1]: > 100 µM (inactive)
- GI50 [2]: > 100 µM (inactive)
- GI50 [3]: > 100 µM (inactive)
- GI50 [4]: > 100 µM (inactive)
- GI50 [5]: > 100 µM (inactive)
- GI50 [6]: > 100 µM (inactive)
- GI50 [7]: 67.5 µM (inactive)
- GI50 [8]: > 100 µM (inactive)
- GI50 [9]: 21.9 µM (inactive)
- GI50 [10]: 23 µM (inactive)
- GI50 [11]: > 100 µM (inactive)
- GI50 [12]: > 100 µM (inactive)
- GI50 [13]: > 100 µM (inactive)
- GI50 [14]: > 100 µM (inactive)
- GI50 [15]: 63 µM (inactive)
- GI50 [16]: > 100 µM (inactive)
- GI50 [17]: > 100 µM (inactive)
- GI50 [18]: > 100 µM (inactive)
- GI50 [19]: > 100 µM (inactive)
- GI50 [20]: > 100 µM (inactive)
- GI50 [21]: > 100 µM (inactive)
- GI50 [22]: > 100 µM (inactive)
- GI50 [23]: > 100 µM (inactive)
- GI50 [24]: > 100 µM (inactive)
- GI50 [25]: > 100 µM (inactive)
- GI50 [26]: > 100 µM (inactive)
- GI50 [27]: > 100 µM (inactive)
- GI50 [28]: > 100 µM (inactive)
- GI50 [29]: > 100 µM (inactive)
- GI50 [30]: > 100 µM (inactive)
- GI50 [31]: 90.2 µM (inactive)
- GI50 [32]: > 100 µM (inactive)
- GI50 [33]: > 100 µM (inactive)
- GI50 [34]: > 100 µM (inactive)
- GI50 [35]: > 100 µM (inactive)
- GI50 [36]: > 100 µM (inactive)
- GI50 [37]: > 100 µM (inactive)
- GI50 [38]: > 100 µM (inactive)
- GI50 [39]: > 100 µM (inactive)
- GI50 [40]: > 100 µM (inactive)
- GI50 [41]: > 100 µM (inactive)
- GI50 [42]: > 100 µM (inactive)
- GI50 [43]: 25.4 µM (inactive)
- GI50 [44]: > 100 µM (inactive)
- GI50 [45]: > 100 µM (inactive)
- GI50 [46]: > 100 µM (inactive)
- GI50 [47]: > 100 µM (inactive)
- GI50 [48]: > 100 µM (inactive)
- GI50 [49]: > 100 µM (inactive)
- GI50 [50]: > 100 µM (inactive)
- GI50 [51]: > 100 µM (inactive)

Compound: CC1(C)C2CCC1(C)C(N/C(Sc1ccccc1)=C(/C(Cl)=C(Cl)Cl)[N+](=O)[O-])C2 (configuration not stated)
- GI50 [1]: 9.06 µM (inactive)
- GI50 [52]: 13.4 µM (inactive)
- GI50 [2]: 13.8 µM (inactive)
- GI50 [3]: 15.1 µM (inactive)
- GI50 [4]: 18.1 µM (inactive)
- GI50 [5]: 13.8 µM (inactive)
- GI50 [6]: 9.14 µM (inactive)
- GI50 [7]: 11.4 µM (inactive)
- GI50 [8]: 16.8 µM (inactive)
- GI50 [9]: 10.4 µM (inactive)
- GI50 [10]: 13.5 µM (inactive)
- GI50 [53]: 12.4 µM (inactive)
- GI50 [54]: 4.92 µM (inactive)
- GI50 [13]: 13.5 µM (inactive)
- GI50 [14]: 13.9 µM (inactive)
- GI50 [16]: 4.8 µM (inactive)
- GI50 [17]: 15.5 µM (inactive)
- GI50 [18]: 13.9 µM (inactive)
- GI50 [19]: 13.2 µM (inactive)
- GI50 [20]: 12.4 µM (inactive)
- GI50 [22]: 6.35 µM (inactive)
- GI50 [23]: 12.3 µM (inactive)
- GI50 [24]: 13.1 µM (inactive)
- GI50 [25]: 13.5 µM (inactive)
- GI50 [26]: 15.2 µM (inactive)
- GI50 [27]: 10.4 µM (inactive)
- GI50 [28]: 14.5 µM (inactive)
- GI50 [29]: 17.7 µM (inactive)
- GI50 [55]: 15.2 µM (inactive)
- GI50 [30]: 12.5 µM (inactive)
- GI50 [31]: 15.6 µM (inactive)
- GI50 [32]: 18.5 µM (inactive)
- GI50 [33]: 15 µM (inactive)
- GI50 [35]: 10.6 µM (inactive)
- GI50 [56]: 10.4 µM
- GI50 [38]: 12 µM (inactive)
- GI50 [39]: 14 µM (inactive)
- GI50 [57]: 15.3 µM (inactive)
- GI50 [44]: 10.4 µM (inactive)
- GI50 [45]: 14.3 µM (inactive)
- GI50 [46]: 11.7 µM (inactive)
- GI50 [47]: 11.2 µM (inactive)
- GI50 [48]: 13.4 µM (inactive)
- GI50 [49]: 3.22 µM (inactive)
- GI50 [50]: 14 µM (inactive)
- GI50 [51]: 13.2 µM (inactive)
